Columns and labels:
Format in all cases: functional
EKVX = test: Growth inhibition of human EKVX cells; settings: for TGI: read-out: pTGI (converted)
U-251 = test: Growth inhibition of human U251 cells; settings: for TGI: read-out: pTGI (converted)
NCI-H226 = test: Growth inhibition of human NCI-H226 cells; settings: for TGI: read-out: pTGI (converted)
DU-145 = test: Growth inhibition of human DU145 cells; settings: for TGI: read-out: pTGI (converted)
SNB-19 = test: Growth inhibition of human SNB19 cells; settings: for TGI: read-out: pTGI (converted)
SN12C = test: Growth inhibition of human SN12C cells; settings: for CC50: read-out: pLC50 (the source's name) (converted); for TGI: read-out: pTGI (converted)
NCI/ADR-RES = test: Growth inhibition of human NCI/ADR-RES cells; settings: for CC50: read-out: pLC50 (the source's name) (converted); for TGI: read-out: pTGI (converted)
IGROV-1 = test: Growth inhibition of human IGROV1 cells; settings: for CC50: read-out: pLC50 (the source's name) (converted); for TGI: read-out: pTGI (converted)
SK-OV-3 = test: Growth inhibition of human SKOV3 cells; settings: for CC50: read-out: pLC50 (the source's name) (converted); for TGI: read-out: pTGI (converted)
Malme-3M = test: Growth inhibition of human MALME-3M cells; settings: for TGI: read-out: pTGI (converted)
NCI-H322M = test: Growth inhibition of human NCI-H322M cells; settings: for TGI: read-out: pTGI (converted)
HCT-116 = test: Growth inhibition of human HCT116 cells; settings: for CC50: read-out: pLC50 (the source's name) (converted); for TGI: read-out: pTGI (converted)
OVCAR-4 = test: Growth inhibition of human OVCAR4 cells; settings: for CC50: read-out: pLC50 (the source's name) (converted); for TGI: read-out: pTGI (converted)
MDA-MB-468 = test: Growth inhibition of human MDA-MB-468 cells; settings: for CC50: read-out: pLC50 (the source's name) (converted); for TGI: read-out: pTGI (converted)
COLO 205 = test: Growth inhibition of human COLO205 cells; settings: for TGI: read-out: pTGI (converted)
SR = test: Growth inhibition of human SR cells; settings: for TGI: read-out: pTGI (converted)
SF-295 = test: Growth inhibition of human SF295 cells; settings: for TGI: read-out: pTGI (converted)

`CC(C)=CCC/C(C)=C/Cc1cc(/C=C/c2cc(O)cc(O)c2)ccc1O` [SCHWEINFURTHIN I] showed a GI50 (EKVX) of 10.5 µM, an LC50 (EKVX) of 50.1 µM and a TGI (EKVX) of 22.9 µM. It also gave a GI50 (U-251) of 5.5 µM, an LC50 (U-251) of 51.3 µM and a TGI (U-251) of 20 µM. It also gave a GI50 (NCI-H226) of 16.6 µM, an LC50 (NCI-H226) of 74.1 µM and a TGI (NCI-H226) of 35.5 µM. The GI50 (DU-145) was 12.9 µM, the LC50 (DU-145) was 51.3 µM and the TGI (DU-145) was 25.7 µM. It also gave a GI50 (SNB-19) of 12.6 µM, an LC50 (SNB-19) of 56.2 µM and a TGI (SNB-19) of 26.9 µM. For the same compound, the GI50 (SN12C) was 13.5 µM, the CC50 (SN12C) was 61.7 µM and the TGI (SN12C) was 28.8 µM. For the same compound, the GI50 (NCI/ADR-RES) was 9.33 µM, the CC50 (NCI/ADR-RES) was 58.9 µM and the TGI (NCI/ADR-RES) was 24 µM. It also gave a GI50 (IGROV-1) of 11.7 µM, a CC50 (IGROV-1) of 55 µM and a TGI (IGROV-1) of 25.1 µM. The GI50 (SK-OV-3) was 15.5 µM, the CC50 (SK-OV-3) was 55 µM and the TGI (SK-OV-3) was 29.5 µM. It also gave a GI50 (Malme-3M) of 11.7 µM, an LC50 (Malme-3M) of 63.1 µM and a TGI (Malme-3M) of 26.9 µM. It also gave a GI50 (NCI-H322M) of 11.5 µM, an LC50 (NCI-H322M) of 51.3 µM and a TGI (NCI-H322M) of 24.5 µM. It also gave a GI50 (HCT-116) of 11 µM, a CC50 (HCT-116) of 50.1 µM and a TGI (HCT-116) of 23.4 µM. It also gave a GI50 (OVCAR-4) of 10 µM, a CC50 (OVCAR-4) of 50.1 µM and a TGI (OVCAR-4) of 22.4 µM. It also gave a GI50 (MDA-MB-468) of 9.12 µM, a CC50 (MDA-MB-468) of 53.7 µM and a TGI (MDA-MB-468) of 22.9 µM. For the same compound, the GI50 (COLO 205) was 18.2 µM, the LC50 (COLO 205) was 64.6 µM and the TGI (COLO 205) was 34.7 µM. The GI50 (SR) was 11.2 µM, the LC50 (SR) was > 100 µM and the TGI (SR) was 43.7 µM. For the same compound, the GI50 (SF-295) was 0.372 µM, the LC50 (SF-295) was 51.3 µM and the TGI (SF-295) was 15.8 µM.

`CC(C)=CCC/C(C)=C/CC/C(C)=C/Cc1c(O)cc(/C=C/c2ccc(O)cc2)cc1O` [SCHWEINFURTHIN J] showed a GI50 (EKVX) of 4.27 µM, an LC50 (EKVX) of 46.8 µM and a TGI (EKVX) of 16.6 µM. It also gave a GI50 (U-251) of 2.75 µM, an LC50 (U-251) of 30.9 µM and a TGI (U-251) of 8.32 µM. The GI50 (NCI-H226) was 3.63 µM, the LC50 (NCI-H226) was 55 µM and the TGI (NCI-H226) was 14.8 µM. It also gave a GI50 (DU-145) of 3.72 µM, an LC50 (DU-145) of 35.5 µM and a TGI (DU-145) of 12.9 µM. The GI50 (SNB-19) was 6.76 µM, the LC50 (SNB-19) was 46.8 µM and the TGI (SNB-19) was 19.5 µM. It also gave a GI50 (SN12C) of 1.95 µM, a CC50 (SN12C) of 9.77 µM and a TGI (SN12C) of 4.37 µM. It also gave a GI50 (NCI/ADR-RES) of 3.16 µM, a CC50 (NCI/ADR-RES) of 38.9 µM and a TGI (NCI/ADR-RES) of 9.77 µM. For the same compound, the GI50 (IGROV-1) was 2.34 µM, the CC50 (IGROV-1) was 38.9 µM and the TGI (IGROV-1) was 11.2 µM. The GI50 (SK-OV-3) was 7.24 µM, the CC50 (SK-OV-3) was 44.7 µM and the TGI (SK-OV-3) was 19.5 µM. For the same compound, the GI50 (Malme-3M) was 2.95 µM, the LC50 (Malme-3M) was 39.8 µM and the TGI (Malme-3M) was 8.91 µM. The GI50 (NCI-H322M) was 6.17 µM, the LC50 (NCI-H322M) was 47.9 µM and the TGI (NCI-H322M) was 20 µM. For the same compound, the GI50 (HCT-116) was 1.86 µM, the CC50 (HCT-116) was 7.94 µM and the TGI (HCT-116) was 3.89 µM. The GI50 (OVCAR-4) was 3.89 µM, the CC50 (OVCAR-4) was 39.8 µM and the TGI (OVCAR-4) was 14.8 µM. For the same compound, the GI50 (MDA-MB-468) was 2.69 µM, the CC50 (MDA-MB-468) was 36.3 µM and the TGI (MDA-MB-468) was 8.91 µM. The GI50 (COLO 205) was 6.46 µM, the LC50 (COLO 205) was 44.7 µM and the TGI (COLO 205) was 18.6 µM. For the same compound, the GI50 (SR) was 4.27 µM, the LC50 (SR) was > 100 µM and the TGI (SR) was 29.5 µM. For the same compound, the GI50 (SF-295) was 2.29 µM, the LC50 (SF-295) was 45.7 µM and the TGI (SF-295) was 11.5 µM.

From ChEMBL document CHEMBL1154825, “Schweinfurthins I and J from Macaranga schweinfurthii” (2010)
